Measured values taken from patent US20080299101A1, “Cancer Treatment Resistance and Agents Modulating Such Resistance” (CENTRE NATIONAL DE LA RECHERCHE SCIENTIFIQUE (CNRS INSTITUT …, priority 2004, published 2008).
Entries after “also recorded” stand apart in the source; their conditions may differ. *1 amine or outer side, *2 acyl side, *3 side chain or, on linkers, in order; H or OH if unused. Where a SMILES comes first, the peptide text is derived from it. Bridges are numbered along the chain shown (N, C = ends). Roman numbers before positions name the chains, in order. [ ]: non-standard residue; d: D form. Actinocin(9to1) = Cc1c2oc3c(C)ccc(C(=O)[*:1])c3nc-2c(C(=O)[*:2])c(N)c1=O; NMeV = CN[C@H](C(=O)O)C(C)C; Sar = CNCC(=O)O

What was measured:
HCT116/R1 = conditions: oxaliplatin 0 μM (actD alone)
Protocol: (§1) Cytotoxicity assays were performed by seeding 4000 cells per well in 96 well plates. […] Cytotoxicity measurements were carried out using the WST-1 colorimetric assay (Boehringer Mannheim) according to the manufacturer's recommendation.

HCT116/R2 = conditions: oxaliplatin 0 μM (actD alone)
Protocol: as §1

HCT116/S = conditions: oxaliplatin 0 μM (actD alone)
Protocol: as §1

[1] = test system: HCT116/S, HCT116/R1, HCT116/R2; experiment: Modulation of oxaliplatin cytotoxicity using actinomycin D preincubation (statement in words); format: cell-based; conditions: preincubation at moderately toxic concentrations; preliminary

Question: How did the “Cytotoxicity of oxali + actD 0.04 nM” value (HCT116/R1; actD 0.04 nM) turn out when `Cc1c2oc3c(C)ccc(C(=O)N[C@@H]4C(=O)N[C@H](C(C)C)C(=O)N5CCC[C@H]5C(=O)N(C)CC(=O)N(C)[C@@H](C(C)C)C(=O)O[C@@H]4C)c3nc-2c(C(=O)N[C@@H]2C(=O)N[C@H](C(C)C)C(=O)N3CCC[C@H]3C(=O)N(C)CC(=O)N(C)[C@@H](C(C)C)C(=O)O[C@@H]2C)c(N)c1=O` [actD, actinomycin D] (I: T[dV]P[Sar][NMeV] / II: T[dV]P[Sar][NMeV]; ester I:1-I:C, II:1-II:C; linker I:N-II:N via Actinocin(9to1)) was run?
Answer: The value was 17.3%.

Question: What about the “Cytotoxicity of oxali + actD 0.12 nM” value (HCT116/R1; actD 0.12 nM) of the same compound?
Answer: The value was 18%.

Question: And the “Cytotoxicity of oxali + actD 0.04 nM” value (HCT116/R2; actD 0.04 nM)?
Answer: The value was 20.6%.

Question: What about the “Cytotoxicity of oxali + actD 0.12 nM” value (HCT116/R2; actD 0.12 nM) of the same compound?
Answer: The value was 17.7%.

Question: And the “Cytotoxicity of oxali + actD 0.36 nM” value (HCT116/R2; actD 0.36 nM)?
Answer: Its value is 21.6%.

Question: And the “Cytotoxicity of oxali + actD 0.04 nM” value (HCT116/S; actD 0.04 nM)?
Answer: The value was 9.1%.

Question: What about the “Cytotoxicity of oxali + actD 0.12 nM” value (HCT116/S; actD 0.12 nM) of the same compound?
Answer: The value was 27.6%.

Question: What about the “Cytotoxicity of oxali + actD 0.36 nM” value (HCT116/S; actD 0.36 nM) of the same compound?
Answer: The value was 85.4%.

Question: What about the “Effect of actinomycin D preincubation on oxaliplatin activity” value [1] of the same compound?
Answer: Its value is “synergy effect; also recorded: synergistic effect”.
